Consider 76 compounds from PubChem BioAssay AID602191 (Broad Institute, 2012).

The target in the assay is Scavenger receptor class B member 1 (Mus musculus) (UniProt Q61009). Kind of assay: activators of SR-BI-mediated HDL uptake, dose response, cell-based, ldlA[mSR-BI] CHO, DiI fluorescence, cherry-pick (AID 602191).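 For AC40: potency of activators raising HDL uptake.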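 For activation (HDL uptake increase): 0% = median of DMSO wells and 100% = twice the DMSO signal.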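 For all read-outs here: cell fluorescence from internalized DiI-labeled HDL after washing.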 The following applies: ldlA[mSR-BI] CHO cells, 3 h; for activation (HDL uptake increase): at 35 µM (top of the series).

Active and inactive are the calls of the source.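 Rule for the calls: active = fitted curve reaches 40% activation at a concentration no higher than the top valid tested dose; inconclusive = flat fit between 30% and 70% activation, or poor fit; inactive = uptake decrease, flat fit within 30% of zero, the rest.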

Sequence of Scavenger receptor class B member 1 (Mus musculus) (Q61009 whole entry, looked up): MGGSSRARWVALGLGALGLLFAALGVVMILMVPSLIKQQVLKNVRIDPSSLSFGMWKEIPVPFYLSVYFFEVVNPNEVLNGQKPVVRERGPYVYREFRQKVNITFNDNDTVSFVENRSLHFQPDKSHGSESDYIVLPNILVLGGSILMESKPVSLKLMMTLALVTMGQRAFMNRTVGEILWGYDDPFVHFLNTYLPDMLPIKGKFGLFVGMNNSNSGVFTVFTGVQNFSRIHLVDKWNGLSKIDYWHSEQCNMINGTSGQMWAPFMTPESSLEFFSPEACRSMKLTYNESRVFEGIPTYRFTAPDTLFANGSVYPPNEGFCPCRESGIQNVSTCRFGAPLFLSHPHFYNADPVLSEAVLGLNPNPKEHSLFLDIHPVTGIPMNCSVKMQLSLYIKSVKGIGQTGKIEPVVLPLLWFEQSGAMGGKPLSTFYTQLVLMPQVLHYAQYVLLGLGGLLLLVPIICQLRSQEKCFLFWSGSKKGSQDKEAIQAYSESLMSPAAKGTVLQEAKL

Take `CCc1nnc(NC(=O)c2nc(S(=O)(=O)Cc3ccc(C)cc3)ncc2Cl)s1`: the activation (HDL uptake increase) was -22.7% (inactive).

As for `Cc1cc(OCC(=O)OCC(=O)NC2CCCCC2C)ccc1Cl` (stereo unspecified), the activation (HDL uptake increase) is -2.13% (inactive).

Regarding `Cc1cc(N2C(=O)C3C4C=CC(C4)C3C2=O)no1` (stereo unspecified), the activation (HDL uptake increase) was -2.45% (inactive). Still for that read-out and setting: as for `COc1ccc(N(C(=O)CNC(=O)c2ccco2)C(C(=O)NC2CCCCC2)c2ccncc2)cc1` (stereo unspecified), the figure is 4.83% (inactive); as for `O=C(CCSc1nnc(-c2ccco2)o1)Nc1ccc(Cl)cc1`, -2.84% (inactive); as for `C[C@@H]1CN([C@@H](C)CO)C(=O)Cc2cc(NC(=O)Nc3ccc(F)cc3)ccc2O[C@@H]1CN(C)Cc1ccc(Cl)c(Cl)c1`, 94.8% (inactive).

As for `CN(C(=O)c1ccccc1Cl)c1ccccc1C(=O)NCc1ccccc1`, the activation (HDL uptake increase) was -10.9% (inactive).

Consider `O=C1C2C3C=CC(C4CC34)C2C(=O)N1c1nccs1` (stereo unspecified), for which the activation (HDL uptake increase) is -0.437% (inactive). Consider `O=C(NNC(=O)C1CC(c2cccnc2)=NO1)Nc1cccc(F)c1` (stereo unspecified), for which the activation (HDL uptake increase) is -5.33% (inactive). On the same count and under the same terms, as for `COC1CCCN(Cc2c(C(=O)N3CCN(C4CCCCC4)CC3)nc3ccccn23)C1` (stereo unspecified), the figure is -7.41% (inactive); as for `CCCCC(=O)OCC(=O)C1(O)Cc2c(O)c3c(c(O)c2C(OC2CC(NC(=O)C(F)(F)F)C(O)C(C)O2)C1)C(=O)c1c(OC)cccc1C3=O` (stereo unspecified), 16.6% (inactive). `NC(=O)c1ncn([C@@H]2O[C@H](CN=C3NS(=O)(=O)c4ccccc43)[C@@H](O)[C@H]2O)n1`: the AC40 is > 35 µM (inactive). Turning to `COc1ccccc1C(=O)NNC(=S)NC(=O)c1sc2ccccc2c1Cl`, the activation (HDL uptake increase) is -16.5% (inactive). Consider `CC(C)(C)n1nc2c(c1NC(=O)Cc1ccc(F)cc1)CS(=O)(=O)C2`, for which the activation (HDL uptake increase) was 9.82% (inactive).

Regarding `CC1CCCC(NC(=O)COC(=O)c2ccc3ccccc3n2)C1C` (stereo unspecified), the activation (HDL uptake increase) was -7.88% (inactive).

In the case of `COc1ccc(N(CC(=O)NCCSc2ccccn2)S(=O)(=O)c2ccc(C)cc2)cc1OC`, the activation (HDL uptake increase) is -0.821% (inactive). Take `CC(C)(C)NC(=O)C[C@H]1C[C@H](C(=O)N2CCOCC2)[C@@]2(CCC3CCCC3)c3[nH]c4cc(-c5ccco5)ccc4c3CCN2C1=O`: the activation (HDL uptake increase) is -1.73% (inactive). As to `O=C(COC(=O)COc1ccccc1)NCCC1=CCCCC1`, the activation (HDL uptake increase) is 2.72% (inactive).

`O=C(Cn1nc(-c2ccccc2)ccc1=O)Nc1ccc(-n2cnnn2)cc1`: the activation (HDL uptake increase) is 12% (inactive). In the case of `COc1ccc(Cn2c(N)c(S(=O)(=O)c3cccs3)c3nc4ccccc4nc32)cc1`, the activation (HDL uptake increase) is -19.6% (inactive). For the compound `Cc1nc(CCNC(=O)Cc2ccc(Cl)cc2)cs1`, the activation (HDL uptake increase) is -4.62% (inactive).

For the compound `COc1cccc(CC(=O)Nc2ccccc2C(=O)N2CCOCC2)c1`, the activation (HDL uptake increase) is 1.38% (inactive). Turning to `CC(C)C(C)(C#N)NC(=O)CSc1nnc(C(F)(F)F)n1C` (stereo unspecified), the activation (HDL uptake increase) was -5.69% (inactive). `O=C1CCC(C(=O)N2CCCCCCC2)CN1Cc1cccc(C(F)(F)F)c1` (stereo unspecified): the activation (HDL uptake increase) is -0.452% (inactive).

Consider `Cc1ccc(S(=O)(=O)N(CCC(=O)NCC(c2ccccc2)N(C)C)c2ccccc2)cc1` (stereo unspecified), for which the activation (HDL uptake increase) is -5.72% (inactive). Same read-out and setting: the same measure for `COCCNC(=O)c1onc(CSc2cccc(OC)c2)c1C(=O)O`: 11.9% (inactive). `COC(=O)C1=C(c2ccc(F)cc2OCc2ccccc2)C[C@@H]2CC[C@H]1N2C(=O)N1CCC(O)CC1`: the activation (HDL uptake increase) was -7.61% (inactive). Still for that read-out and setting: the same measure for `COc1ccccc1CN1C(=O)CCC1(C)C(=O)NCc1cccnc1` (stereo unspecified): -8.82% (inactive); for `COc1cccc(C(=O)COC(=O)CCC(=O)c2ccccc2)c1`: -0.792% (inactive); for `Clc1ccc2nc(CN3CCCCCC3)cn2c1`: 0.923% (inactive).

Take `CN(C)CCn1c2c(c(SCC(=O)NCc3ccccc3)nc1=O)CCCC2`: the activation (HDL uptake increase) is 5.5% (inactive). For the compound `COc1ccc(/C(O)=C2/C(=O)C(=O)N(CCN3CCOCC3)C2c2ccccn2)cc1` (stereo unspecified), the activation (HDL uptake increase) was -1.9% (inactive). As for `Cn1c(=O)[nH]c(=O)c2c1nc(N1CCN(c3ccccc3)CC1)n2CCSc1ncccn1`, the activation (HDL uptake increase) is 2.78% (inactive).

Regarding `CCN(CC(=O)Nc1ccc(OC)cc1)C(=O)c1ccc(=O)n(Cc2ccccc2)n1`, the activation (HDL uptake increase) was -12.4% (inactive).

Turning to `COc1ccccc1NC(=O)CCC(=O)OCc1cccc([N+](=O)[O-])c1`, the activation (HDL uptake increase) was -10.7% (inactive). Still for that read-out and setting: as for `Cc1c(C(=O)N(C)C(C)c2ccncn2)oc2c(F)cccc12` (stereo unspecified), the figure is -9.31% (inactive); as for `CC(OC(=O)c1ccc(S(=O)(=O)N2CCCCC2)cc1)C(=O)Nc1ccc(C(N)=O)cc1` (stereo unspecified), 0.807% (inactive); as for `CCOC(=O)C1CCCN(C(=S)Nc2cccc(Cl)c2C)C1` (stereo unspecified), -3.98% (inactive). As for `O=C(CNC(=O)c1cncc(Br)c1)Nc1ccc(F)c(F)c1F`, the activation (HDL uptake increase) was -11% (inactive). `CC(=O)c1cccc(NC(=O)COC(=O)Cn2cnc3ccccc32)c1`: the activation (HDL uptake increase) is 12.6% (inactive). With `O=C(OCCc1cc2ccccc2c(=O)o1)c1ccco1`, the activation (HDL uptake increase) was -0.117% (inactive). Consider `CC1CCCC(NC(=O)CSc2nncs2)C1C` (stereo unspecified), for which the activation (HDL uptake increase) was -4.42% (inactive). Still for that read-out and setting: the same measure for `Cn1cc(CN2CCC(O)CC2)c(-c2ccc(Oc3ccccc3)cc2)n1`: -5.7% (inactive); for `CC(C)=C1C2CCC1C(C(=O)NCCc1ccccc1)C2C(=O)O` (stereo unspecified): -7.43% (inactive); for `CC(=O)N1CCN(S(=O)(=O)c2cccc(C(=O)Nc3cc(C(F)(F)F)ccc3N3CCOCC3)c2)CC1`: -3.42% (inactive). With `Cc1noc(/C=C/N(C)C)c1S(=O)(=O)N1CCCC(C(=O)NCc2ccco2)C1` (stereo unspecified), the activation (HDL uptake increase) was -1.39% (inactive). Take `O=C(CN1CCN(S(=O)(=O)c2ccc(Cl)s2)CC1)NCc1ccc(Cl)cc1`: the activation (HDL uptake increase) was -4.32% (inactive). Consider `CN(C)c1nc(C#N)nc(N2CCOCC2)n1`, for which the activation (HDL uptake increase) is 4.22% (inactive). With `COc1cccc(OC)c1C(=O)N1CCN(Cc2ccccc2C)CC1`, the activation (HDL uptake increase) is -7.18% (inactive).

Consider `CC(C)COC(=O)Cc1c(O)c2ccccc2[nH]c1=O`, for which the activation (HDL uptake increase) is -2.53% (inactive). For `CCC1C(=O)NCCN1C(=O)c1ccc(OC)c(OC2CCN(C(C)=O)CC2)c1` (stereo unspecified), the activation (HDL uptake increase) was -6.7% (inactive). Still for that read-out and setting: as for `COCCNC(=O)c1cnn2c1NC(c1ccco1)CC2C(F)(F)F` (stereo unspecified), the figure is -4% (inactive); as for `CCN1C(=O)C(CC(=O)NC2CCCCC2)N(CC)C1=O` (stereo unspecified), 7.58% (inactive).

In the case of `CCCCc1nc2cc(C(=O)NCc3ccccn3)ccc2o1`, the activation (HDL uptake increase) was -3.25% (inactive). For the compound `O=C(NCc1cccs1)C1CCCN(C(=O)Nc2ccccc2)C1` (stereo unspecified), the activation (HDL uptake increase) is 7.76% (inactive). In the case of `O=C(c1ccco1)N1CCN(C(=S)Nc2ccc(F)c(Cl)c2)CC1`, the activation (HDL uptake increase) is -12.3% (inactive).

As to `COc1ccc(CCN2CC(C(=O)NCc3cnn(C(C)C)c3)CCC2=O)cc1` (stereo unspecified), the activation (HDL uptake increase) was -1.83% (inactive). Turning to `CCOC(=O)c1c(NC(=O)C2COc3ccccc3O2)sc2c1CC(C)(C)NC2(C)C` (stereo unspecified), the activation (HDL uptake increase) is -5.51% (inactive). For the compound `COCCn1c(=O)[nH]c2cc(C(=O)N3CCN(c4ccccc4OC)CC3)ccc2c1=O`, the activation (HDL uptake increase) was -12.6% (inactive). `COc1ccccc1N1CCN(C2CCCN(C(=O)c3ccccn3)C2)CC1` (stereo unspecified): the activation (HDL uptake increase) was -4.31% (inactive). Regarding `COC(=O)CNC(=O)COC(=O)c1cc(Cl)cc(Cl)c1N`, the activation (HDL uptake increase) is -8.63% (inactive). On to `O=C(COC(=O)C1CC1)Nc1ccc(OC(F)F)cc1`, for which the activation (HDL uptake increase) is 4.41% (inactive).

For `CC(=O)Oc1ccc2oc(=O)c3c(c2c1)CCCN3C(=O)CN1CCN(c2ncccn2)CC1`, the activation (HDL uptake increase) was -12.6% (inactive). For the compound `CCn1c(C(=O)O)c(CC(=O)NC2CCCCCC2)c2ccccc21`, the AC40 was > 35 µM (inactive). `O=C(CNC(=O)c1ccc(Cl)cc1)NCC(F)(F)F`: the activation (HDL uptake increase) is -9.51% (inactive). On to `Cc1ccccc1-c1nnc(SCC(=O)Nc2c(C)n(C)n(-c3ccccc3)c2=O)o1`, for which the activation (HDL uptake increase) is -18.8% (inactive). Same read-out and setting: as for `Cc1ccc(N2C(=O)C(Cc3ccc(O)cc3)NC2=S)cc1C` (stereo unspecified), the figure is -11.4% (inactive); as for `CC(C)CN(C(=O)CN1C(=O)C2CCCCC2C1=O)c1c(N)n(Cc2ccccc2)c(=O)[nH]c1=O` (stereo unspecified), -7.25% (inactive). With `O=C(CCC(=O)N1CCOc2ccc(Cl)cc21)NCCCN1CCN(Cc2ccccc2)CC1`, the activation (HDL uptake increase) is 4.6% (inactive). For `CC(C(=O)NCCS(=O)(=O)c1ccc(Br)cc1)S(=O)(=O)c1ccc(Cl)cc1` (stereo unspecified), the activation (HDL uptake increase) was 11.1% (inactive). On to `O=C1C2CCCN2C(=O)N1CCCCN1CCN(c2ccccc2)CC1` (stereo unspecified), for which the activation (HDL uptake increase) was 10.3% (inactive). On the same count and under the same terms, the same measure for `O=C(CCNS(=O)(=O)c1cccs1)N1CCc2ccccc2C1`: -0.366% (inactive).

For `O=c1c(C=NCCN2CCNCC2)c(O)n(C2CCCCC2)c(=O)n1C1CCCCC1`, the AC40 was > 35 µM (inactive).

As for `O=C(CCNC(=O)c1ccccc1Cl)NN1C(=O)NC2(CCCCC2)C1=O`, the activation (HDL uptake increase) is -10.8% (inactive). Turning to `Nc1ncnc2c1ncn2[C@@H]1O[C@H](CNCc2cccn2-c2nccs2)[C@@H](O)[C@H]1O`, the activation (HDL uptake increase) was 10.3% (inactive). With `Cc1ccc(OCCC(=O)OCC(=O)NNC(=O)c2ccccc2)cc1`, the activation (HDL uptake increase) was 8.09% (inactive).
